Assays:
[1] = test system: ULK kinase substrate ATG13 (pS318-ATG13) in A549 (KRAS mutant) cells; test: pATG13 levels of mutant KRas A549 cells after treatment with ULK inhibitors in combination with trametinib (ELISA); type: cell-based, human
Method: Cellular Inhibition of ULK Kinase Substrate ATG13 Protein pATG13 Levels of Mutant KRas A549 Cells after Treatment with ULK Inhibitors in Combination with Trametinib
(§1) A549 (KRAS mutant) human lung cancer cells (6,000 cells/well) were added to a 384-well tissue-culture treated plate in 50 μL of pre-warmed DMEM medium supplemented with 10% characterized fetal bovine serum (Invitrogen, Carlsbad, CA), 100 units/mL penicillin G, and 100 μg/mL streptomycin and allowed to grow overnight at 37° C., 5% CO2, and 95% humidity. The following day, 10 μL of media containing trametinib or DMSO as a control was added to wells. The final concentration of trametinib in wells was 250 nM. A dose response of a test compound (0.6 μL per well) was added. DMSO (0.6 μL) was added to control wells. The plate was briefly shaken to mix wells and then incubated at 37° C. overnight. The next day, the media was aspirated and cells were washed with Dulbecco's Phosphate Buffered Saline (Gibco). Cells were lysed using MPER lysis buffer (Pierce, Rockford, IL) containing Halt Phosphatase and Protease Inhibitors (Pierce, Rockford, IL) and Phosphatase inhibitor cocktail 2 (Sigma, St. Louis, MO) at 4° C. for 10 min with shaking.
(§2) Cellular levels of phospho-Serine 318 ATG13 (pATG13) were measured via an ELISA method. Total ATG13 Antibody (Cell Signaling Cat #13273) was used to coat the wells. The plate was incubated at 4° C. overnight and washed with ELISA wash buffer (Biolegend Cat #421601). The wells were then blocked with assay diluent (Biolegend Cat #421203) for 1 h at rt. Plate wells were washed with ELISA wash buffer. Cell lysate was added to wells and incubated at rt for 2 h. Plate wells were washed with ELISA wash buffer. Biotinylated pS318-ATG13 antibody (Rockland Immunochemicals Cat #600-401-C49) was diluted in assay diluent and added to each well and incubated at rt for 1 h. Plate wells were washed with ELISA wash buffer. Streptavidin linked to horseradish peroxidase (Thermo Fisher Cat #21140) was diluted in assay diluent and added to each well and incubated at rt for 1 h. Plate wells were washed with ELISA wash buffer. High sensitivity TMB substrate (Biolegend Cat #421101) was added to each well and incubated at rt for 20 min. The reaction was stopped with 2N Sulfuric Acid. The plate was analyzed at on a plate reader measuring absorbance at 450 nm and 540 nm (background). Signal was calculated by first subtracting the background absorbance at 540 nm from the absorbance at 450 nm for each well. Next, the background corrected absorbance at 450 nm from blank wells was subtracted from test wells. Data was compared to control wells to determine % ATG13 phosphorylation. GraphPad Prism was used to calculate IC50 values.

[2] = test system: ULK kinase substrate ATG13 (pS318-ATG13) in MiaPaCa-2 cells; test: pATG13 levels of mutant KRas MiaPaCa-2 cells after treatment with ULK inhibitors in combination with trametinib (ELISA); type: cell-based, human
Method: pATG13 Levels of Mutant KRas MiaPaCa-2 Cells after Treatment with ULK Inhibitors in Combination with Trametinib
as §1, with “MiaPaCa-2” for “A549 (KRAS mutant)”, “pancreatic” for “lung”, “(10000” for “(6,000”, “G,” for “G, and”, “streptomycin, and 2.5% Horse Serum” for “streptomycin”, “minutes” for “min”
as §2, with “2.0N sulfuric acid.” for “2N Sulfuric Acid.”

ULK1 kinase = target: T1, ULK1 kinase (Homo sapiens, UniProt O75385, E37A/K38A); test: Biochemical assay for ULK1 (coupled pyruvate kinase/lactate dehydrogenase assay); conditions: 1 mM ATP, 0.1 nM ULK1; read-out: ULK1 (inhibition of biochemical activity), IC50
T1 construct: (residues 1-283; ID NO: 1); purchased Beryllium
T1 sequence (O75385 1-283 E37A/K38A): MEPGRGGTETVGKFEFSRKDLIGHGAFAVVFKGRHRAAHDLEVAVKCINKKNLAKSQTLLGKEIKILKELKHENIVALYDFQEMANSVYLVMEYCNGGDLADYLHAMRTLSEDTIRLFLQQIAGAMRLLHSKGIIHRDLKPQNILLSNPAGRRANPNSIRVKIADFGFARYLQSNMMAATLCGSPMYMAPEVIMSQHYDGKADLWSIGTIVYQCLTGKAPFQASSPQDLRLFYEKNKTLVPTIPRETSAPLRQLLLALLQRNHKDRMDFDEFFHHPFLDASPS
Method: Biochemical Assay for ULK1 (SEQ. ID NO: 1)
Activity of ULK1 kinase was determined spectroscopically using a coupled pyruvate kinase/lactate dehydrogenase assay that continuously monitors the ATP hydrolysis-dependent oxidation of NADH (e.g., Schindler et al. Science (2000) 289: 1938-1942). Assays were conducted in 384-well plates (100 μL final volume) using 0.1 nM ULK1 (from Beryllium), 0.075 mM peptide substrate (YANWLAASIYLDGKKK), 1.5 units pyruvate kinase, 2.1 units lactate dehydrogenase, 1 mM phosphoenol pyruvate, 0.28 mM NADH and 1 mM ATP in assay buffer (100 mM Tris, pH 7.5, 15 mM MgCl2, 0.5 mM DTT, 0.004% (w/v) BSA, and 0.004% Triton X-100). Inhibition of ULK1 was measured by adding serial diluted test compound (final assay concentration of 1% DMSO). A decrease in absorption at 340 nm was monitored continuously for 6 h at 30° C. on a multi-mode microplate reader (BioTek). The reaction rate was calculated using the 2-3 h time frame. The reaction rate at each concentration of compound was converted to percent inhibition using controls (i.e., reaction with no test compound and reaction with a known inhibitor) and IC50 values were calculated using software routines in Prism (GraphPad software).

ULK2 kinase = target: T2, ULK2 kinase (Homo sapiens, UniProt Q8IYT8); test: Biochemical assay for ULK2 (coupled pyruvate kinase/lactate dehydrogenase assay); conditions: 1 mM ATP, 1 nM ULK2; read-out: ULK2 (inhibition of biochemical activity), IC50
T2 construct: (residues 1-306 with N-terminal GST and His tag; ID NO: 2); purchased Signal Chem U02-11G
T2 sequence (Q8IYT8 with tags, fused parts or gaps): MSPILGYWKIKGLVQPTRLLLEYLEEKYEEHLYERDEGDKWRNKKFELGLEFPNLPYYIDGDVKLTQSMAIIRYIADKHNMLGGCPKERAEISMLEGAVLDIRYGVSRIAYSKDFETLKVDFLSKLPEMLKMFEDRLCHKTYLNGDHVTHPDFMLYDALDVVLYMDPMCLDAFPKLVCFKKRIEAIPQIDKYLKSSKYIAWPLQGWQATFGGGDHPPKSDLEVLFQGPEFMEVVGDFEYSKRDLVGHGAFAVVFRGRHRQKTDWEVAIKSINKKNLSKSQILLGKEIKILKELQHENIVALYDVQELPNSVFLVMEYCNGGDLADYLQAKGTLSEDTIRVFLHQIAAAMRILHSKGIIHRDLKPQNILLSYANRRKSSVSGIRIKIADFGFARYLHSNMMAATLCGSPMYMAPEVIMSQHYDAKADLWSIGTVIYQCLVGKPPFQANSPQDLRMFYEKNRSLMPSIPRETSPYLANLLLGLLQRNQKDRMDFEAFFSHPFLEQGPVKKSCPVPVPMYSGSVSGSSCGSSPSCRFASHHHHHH
Method: Biochemical Assay for ULK2 (SEQ. ID NO: 2)
Activity of ULK2 kinase was determined spectroscopically using a coupled pyruvate kinase/lactate dehydrogenase assay that continuously monitors the ATP hydrolysis-dependent oxidation of NADH (e.g., Schindler et al. Science (2000) 289: 1938-1942). Assays were conducted in 384-well plates (100 μL final volume) using 1 nM ULK2 (Signal Chem U02-11G), 200 μM ULKtide, 1.5 units pyruvate kinase, 2.1 units lactate dehydrogenase, 1 mM phosphoenol pyruvate, 0.28 mM NADH and 1 mM ATP in assay buffer (100 mM Tris, pH 7.5, 15 mM MgCl2, 0.5 mM DTT, 0.1% octyl-glucoside, 0.002% (w/v) BSA, and 0.002% Triton X-100). Inhibition of ULK2 was measured by adding serial diluted test compound (final assay concentration of 1% DMSO). A decrease in absorption at 340 nm was monitored continuously for 6 h at 30° C. on a multi-mode microplate reader (BioTek). The reaction rate was calculated using the 2-3 h time frame. The reaction rate at each concentration of compound was converted to percent inhibition using controls (i.e., reaction with no test compound and reaction with a known inhibitor) and IC50 values were calculated by fitting a four-parameter sigmoidal curve to the data using Prism (GraphPad software).

Structure (SMILES)	IC50 [1]	IC50 [2]	IC50 (ULK1 kinase)	IC50 (ULK2 kinase)
CC/C(Nc1cnn(C(C)C)c1)=C1/C(=O)Nc2ccc(C(=O)C3CC3)cc21 [Example 6, (Z)-5-(cyclopropanecarbonyl)-3-(1-((1-isopropyl-1H-pyrazol-4-yl)amino)propylidene)indolin-2-one]	100 to 300 nM	–	10 to 100 nM	100 to 500 nM
CC/C(Nc1ccc(N2CCN(C)CC2)cc1)=C1/C(=O)Nc2ccc(C(=O)NCCOC)cc21 [Example 11]	300 to 600 nM	≤ 100 nM	10 to 100 nM	–
C/C(Nc1cnn(C2CCN(C(C)C)CC2)c1)=C1/C(=O)Nc2ccc(C(=O)NCC(F)(F)F)cc21 [Example 24]	300 to 600 nM	≤ 100 nM	≤ 10 nM	–
CC/C(Nc1ccc(N2CCN(C)CC2)c(F)c1)=C1/C(=O)Nc2ccc(C(=O)NCC(F)(F)F)cc21 [Example 72]	–	≤ 100 nM	≤ 10 nM	≤ 10 nM
CC/C(Nc1ccc(N2CCN(C)CC2)cc1F)=C1/C(=O)Nc2ccc(C(=O)NCC(F)(F)F)cc21 [Example 73]	–	100 to 300 nM	100 to 500 nM	100 to 500 nM
CC/C(Nc1cnc(N2CCN(C)CC2)nc1)=C1/C(=O)Nc2ccc(C(=O)NCC(F)(F)F)cc21 [Example 76]	–	100 to 300 nM	100 to 500 nM	> 500 nM
CC/C(Nc1cncc(C(C)C)c1)=C1/C(=O)Nc2ccc(C(=O)NCC(F)(F)F)cc21 [Example 182]	–	–	> 500 nM	> 500 nM
CC/C(Nc1cnn(C(C)C)c1)=C1/C(=O)Nc2ccc(C(N)=O)cc21 [Example 183]	–	–	10 to 100 nM	10 to 100 nM

Results, then the compound that gave them:

IC50 [1]	IC50 [2]	IC50 (ULK1 kinase)	IC50 (ULK2 kinase)	Structure (SMILES)
> 600 nM	100 to 300 nM	100 to 500 nM	–	CC/C(Nc1cnn(C2CCN(C(C)C)CC2)c1)=C1/C(=O)Nc2ccc(C(=O)N(C)C)cc21 [Example 2, (Z)-3-(1-((1-(1-isopropylpiperidin-4-yl)-1H-pyrazol-4-yl)amino)propylidene)-N,N-dimethyl-2-oxoindoline-5-carboxamide]
≤ 100 nM	≤ 100 nM	≤ 10 nM	–	CCCNC(=O)c1ccc2c(c1)/C(=C(\CC)Nc1cnn(C3CCN(C(C)C)CC3)c1)C(=O)N2 [Example 15]
≤ 100 nM	≤ 100 nM	≤ 10 nM	–	CC/C(Nc1cnn(C2CCN(C3CCC3)CC2)c1)=C1/C(=O)Nc2ccc(C(=O)NCC(C)C)cc21 [Example 32]
≤ 100 nM	≤ 100 nM	≤ 10 nM	–	CC/C(Nc1cnn(C2CCN(C3CCCC3)CC2)c1)=C1/C(=O)Nc2ccc(C(=O)NCC(C)C)cc21 [Example 33]
≤ 100 nM	≤ 100 nM	≤ 10 nM	–	CC/C(Nc1cnn(C2CCN(C3CCCCC3)CC2)c1)=C1/C(=O)Nc2ccc(C(=O)NCC(C)C)cc21 [Example 34]
300 to 600 nM	≤ 100 nM	≤ 10 nM	–	CC/C(Nc1cnn(C2CCN(C3COC3)CC2)c1)=C1/C(=O)Nc2ccc(C(=O)NCC(C)C)cc21 [Example 35]
100 to 300 nM	≤ 100 nM	≤ 10 nM	–	CC/C(Nc1cnn(C2CCN(C3CCOC3)CC2)c1)=C1/C(=O)Nc2ccc(C(=O)NCC(C)C)cc21 (stereo not shown) [Example 36]
≤ 100 nM	≤ 100 nM	≤ 10 nM	–	CC/C(Nc1cnn(C2CCN(CC(C)C)CC2)c1)=C1/C(=O)Nc2ccc(C(=O)NCC(C)C)cc21 [Example 38]
≤ 100 nM	≤ 100 nM	≤ 10 nM	–	CC/C(Nc1cnn(C2CCN(CC3CC3)CC2)c1)=C1/C(=O)Nc2ccc(C(=O)NCC(C)C)cc21 [Example 39]
≤ 100 nM	–	≤ 10 nM	10 to 100 nM	CC/C(Nc1cnn(C2CCN(C(C)C)CC2)c1)=C1/C(=O)Nc2ccc(C(=O)NCC3(C)CCCO3)cc21 (stereo not shown) [Example 174]

From US20240150368A1, “ULK INHIBITORS AND METHODS OF USE THEREOF” (Deciphera Pharmaceuticals, LLC, priority 2022, published 2024)
